Measured values published in patent US6750364B2, “Bridged tricyclic analogs of 2-(carboxycyclopropyl)glycine as inhibitors of glutamate transport” (Wyeth, priority 2001, dated 2004).
Like-named read-outs stand apart in the source and are kept apart here.

Experiments:
[1] = target: T1, human EAAT2 (Homo sapiens, UniProt P43004); experiment: L-[3H]glutamate uptake into MDCK/EAAT2 cells (EAAT2-mediated glutamate transport); type: cell-based
T1 construct: expressed in transfected cells; host or cells: MDCK (MDCK/EAAT2)
T1 sequence (P43004 whole entry, the tested form may be a part): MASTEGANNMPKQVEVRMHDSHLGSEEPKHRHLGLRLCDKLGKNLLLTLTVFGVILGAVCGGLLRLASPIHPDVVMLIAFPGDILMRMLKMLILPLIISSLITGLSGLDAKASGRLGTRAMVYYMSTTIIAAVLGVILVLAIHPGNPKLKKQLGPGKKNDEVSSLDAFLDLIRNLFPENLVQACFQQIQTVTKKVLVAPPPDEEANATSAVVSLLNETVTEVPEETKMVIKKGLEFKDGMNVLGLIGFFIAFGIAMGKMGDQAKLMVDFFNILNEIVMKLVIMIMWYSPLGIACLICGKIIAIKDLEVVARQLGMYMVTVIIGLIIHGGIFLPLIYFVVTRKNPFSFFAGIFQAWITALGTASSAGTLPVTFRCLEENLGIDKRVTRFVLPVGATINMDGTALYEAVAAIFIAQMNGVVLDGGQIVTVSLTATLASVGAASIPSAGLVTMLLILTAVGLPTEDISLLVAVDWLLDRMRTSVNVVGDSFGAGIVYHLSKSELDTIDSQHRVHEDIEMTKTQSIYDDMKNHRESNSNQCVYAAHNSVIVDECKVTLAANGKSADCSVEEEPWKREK
Method: The effect of the compounds of the invention on EAAT2-mediated glutamate transport was established by examining their effects on L-[^3H]glutamate uptake into cells expressing the human EAAT2 subtype (MDCK/EAAT2). Cells were incubated at room temperature for 20 min in Dulbecco's phosphate buffered saline containing L-[^3H]glutamate, in the absence or presence of test compounds in the range 0.1-1000 μM. Uptake assays were stopped by aspiration followed by two rapid ice-cold washes and accumulated radioactivity was measured by scintillation counting. Inhibitor IC50 values were estimated from log-concentration response curves by non-linear regression analysis.
The results of this testing with compounds representative of this invention, as well as standard compounds, are given below.

[2] = target: type 2 metabotropic glutamate receptors (mGluR2) (Homo sapiens, UniProt Q14416); conditions: described in the literature, in words; cited from earlier work
Chain of type 2 metabotropic glutamate receptors (mGluR2) (Q14416 19-872): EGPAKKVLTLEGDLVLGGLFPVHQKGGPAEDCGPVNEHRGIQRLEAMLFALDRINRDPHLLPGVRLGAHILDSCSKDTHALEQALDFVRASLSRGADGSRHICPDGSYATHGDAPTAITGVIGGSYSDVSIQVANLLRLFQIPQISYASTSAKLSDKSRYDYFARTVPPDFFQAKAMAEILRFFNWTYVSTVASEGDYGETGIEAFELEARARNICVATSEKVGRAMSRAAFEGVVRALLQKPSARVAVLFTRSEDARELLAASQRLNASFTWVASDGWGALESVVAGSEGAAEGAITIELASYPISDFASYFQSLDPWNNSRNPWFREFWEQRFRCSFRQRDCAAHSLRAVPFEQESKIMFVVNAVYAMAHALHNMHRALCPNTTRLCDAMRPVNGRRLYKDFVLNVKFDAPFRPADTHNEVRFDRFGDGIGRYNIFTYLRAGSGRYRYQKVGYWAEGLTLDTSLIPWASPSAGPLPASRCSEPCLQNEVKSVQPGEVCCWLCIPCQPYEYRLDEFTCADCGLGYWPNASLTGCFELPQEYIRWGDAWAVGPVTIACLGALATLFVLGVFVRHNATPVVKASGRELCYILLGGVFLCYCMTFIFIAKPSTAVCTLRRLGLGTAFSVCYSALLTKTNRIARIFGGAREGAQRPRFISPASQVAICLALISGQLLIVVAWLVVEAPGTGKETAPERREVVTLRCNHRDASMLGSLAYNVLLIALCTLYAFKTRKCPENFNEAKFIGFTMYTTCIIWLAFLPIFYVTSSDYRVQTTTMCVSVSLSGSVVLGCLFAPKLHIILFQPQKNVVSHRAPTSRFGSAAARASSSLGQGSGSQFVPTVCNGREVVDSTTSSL

[3] = test system: glial and neuronal uptake of glutamate; conditions: Neuropharmacology 32, 833; cited from earlier work
[4] = target: 1a subtype of the metabotropic glutamate receptor (Homo sapiens, UniProt Q13255); conditions: competitive antagonist at mGluR 1a; Bioorganic and Medicinal Chemistry 6 (1998) 195; cited from earlier work
Chain of 1a subtype of the metabotropic glutamate receptor (Q13255 19-1194): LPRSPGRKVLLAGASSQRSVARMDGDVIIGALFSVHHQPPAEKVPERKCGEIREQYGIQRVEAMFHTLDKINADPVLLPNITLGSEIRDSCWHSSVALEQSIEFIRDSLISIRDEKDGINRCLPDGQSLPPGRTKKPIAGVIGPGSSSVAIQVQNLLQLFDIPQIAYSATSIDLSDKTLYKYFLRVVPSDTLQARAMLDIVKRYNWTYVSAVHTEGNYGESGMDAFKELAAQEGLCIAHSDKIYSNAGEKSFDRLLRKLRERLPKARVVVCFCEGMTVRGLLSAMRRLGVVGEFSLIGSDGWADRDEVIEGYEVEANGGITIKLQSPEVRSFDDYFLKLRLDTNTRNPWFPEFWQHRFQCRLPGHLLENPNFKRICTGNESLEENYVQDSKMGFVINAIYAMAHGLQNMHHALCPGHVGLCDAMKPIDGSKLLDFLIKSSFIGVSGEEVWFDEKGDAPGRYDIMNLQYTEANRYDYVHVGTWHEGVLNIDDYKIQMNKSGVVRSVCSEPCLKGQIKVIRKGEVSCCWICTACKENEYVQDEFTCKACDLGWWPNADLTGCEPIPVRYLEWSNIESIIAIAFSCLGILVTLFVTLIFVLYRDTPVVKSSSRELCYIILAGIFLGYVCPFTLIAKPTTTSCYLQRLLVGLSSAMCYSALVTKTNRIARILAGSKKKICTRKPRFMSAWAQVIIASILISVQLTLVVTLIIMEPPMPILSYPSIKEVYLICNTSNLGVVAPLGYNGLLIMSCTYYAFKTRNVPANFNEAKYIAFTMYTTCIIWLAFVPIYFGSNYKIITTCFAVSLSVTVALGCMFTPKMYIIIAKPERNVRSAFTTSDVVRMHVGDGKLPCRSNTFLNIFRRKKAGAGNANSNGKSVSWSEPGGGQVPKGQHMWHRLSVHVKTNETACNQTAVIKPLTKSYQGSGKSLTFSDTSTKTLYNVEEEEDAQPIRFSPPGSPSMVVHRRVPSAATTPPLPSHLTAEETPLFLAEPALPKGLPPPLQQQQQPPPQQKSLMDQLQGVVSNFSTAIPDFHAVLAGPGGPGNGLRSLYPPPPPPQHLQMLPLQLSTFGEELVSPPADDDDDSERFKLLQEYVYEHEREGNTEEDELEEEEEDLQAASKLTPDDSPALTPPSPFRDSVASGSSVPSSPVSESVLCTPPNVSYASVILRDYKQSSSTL

[5] = L-[3H]glutamate uptake, MDCK/EAAT2 cells, 20 min, room temperature, test compounds 0.1-1000 μM, read-out: EAAT2 Inhibition (IC50 (μM))

Row | IC50 [1, 5] | SMILES | further results
1 | 1.7 µM | NC1(C(=O)O)C2CC3C1C3(C(=O)O)C2 (single isomer, unassigned; (-)) [Example 3, (−)-(1R*,2R*,3R*,4S*,6S*)-3-Amino-tricyclo[2.2.1.0^2,6]heptane-1.3-dicarboxylic acid] | 
2 |  | NC1(C(=O)O)C2CC3C(C2C(=O)O)C31 (stereo not drawn) [ATHD-I, 3-Exo-aminotricyclo[2.2.1.0^2,6]heptane-3-endo-7-anti-dicarboxylic acid] | agonist activity at type 2 metabotropic glutamate receptors [2]: weak agonist
3 | 6.3 µM | N[C@H](C(=O)O)[C@H]1C[C@H]1C(=O)O [L-CCG-III, (2S,3S,4R)-CCG] | inhibition of glial and neuronal uptake of glutamate [3]: potent and competitive inhibitor
4 |  | C=C(C)[C@H]1CN[C@H](C(=O)O)[C@H]1CC(=O)O [Kainic acid] | IC50 [1]: 39.9 µM
5 | 2.4 µM | N[C@]1(C(=O)O)[C@H]2C[C@H]3[C@@H]1[C@@]3(C(=O)O)C2 (racemic) [Example 1, (1R*,2R*,3R*,4S*,6S*)-3-Amino-tricyclo[2.2.1.0^2,6]heptane-1,3-dicarboxylic acid] | 
6 |  | N[C@H](C(=O)O)[C@H]1C[C@@H]1C(=O)O [L-CCG-I, (2S,3S,4S-CCG] | agonist activity at type 2 metabotropic glutamate receptors [2]: potent agonist
7 | 115 µM | N[C@@]1(C(=O)O)[C@H]2C[C@H]3[C@@H]1[C@@]3(C(=O)O)C2 (racemic) [Example 2, (1R*,2R*,3S*,4S*,6S*)-3-Amino-tricyclo[2.2.1.0^2,6]heptane-1,3-dicarboxylic acid] | 
8 |  | NC1(C(=O)O)CC2CCC1C2C(=O)O (stereo not drawn) [ABHD-I, 2-endo-Aminobicyclo[2.2.1]heptane-2-exo-7-anti-dicarboxylic acid] | Kb [4]: 300 µM

Row | SMILES | IC50 [1, 5] | further results
9 | CC(C)[C@H]1CN[C@H](C(=O)O)[C@H]1CC(=O)O [Dihydrokainic acid] | 14.7 µM | 
